After the bases stand the sugars from the 5' end (letter, count) and the backbone: PS all phosphorothioate, else s phosphorothioate and o phosphodiester by linkage. Methylation of C is not given here. e = 2'-O-(2-methoxyethyl) (MOE); k = constrained ethyl (cEt); d = 2'-deoxy (DNA); m = 2'-O-methyl
Biological target: HSD17B13
Conditions: ASO, HepaRG

**Q.** With CTTTTAACTACCCTCA (sugars k3 d10 k3, PS) as the sequence, how does the target mRNA inhibition (1 µM) read?
**A.** 16%

**Q.** CTTTTAGGGAGGTAGC (sugars k3 d10 k3, PS) was tested. Which target mRNA inhibition (1 µM) did it give?
**A.** 62%

**Q.** How did the target mRNA inhibition (1 µM) turn out when “CTTTTTATAGACTGGG (sugars k3 d9 k3 e1, PS)” was run?
**A.** 44%

**Q.** How did the target mRNA inhibition (1 µM) turn out when CTTTTTATAGACTGGG (sugars k3 d10 k3, PS) was run?
**A.** 67%

**Q.** For GAAAAAGGTTATCATG (sugars k3 d10 k3, PS), which target mRNA inhibition (1 µM) is on record?
**A.** 31%

**Q.** For GAAACCAATCCTCAGC (sugars k3 d10 k3, PS), which target mRNA inhibition (1 µM) is on record?
**A.** 3%

**Q.** Which target mRNA inhibition (1 µM) does the source give for GAAACTTGATCTCTTA (sugars k3 d10 k3, PS) here?
**A.** 64%

**Q.** For “GAAACTTGATCTCTTA (sugars kkdddddddddkekek, PS)”, which target mRNA inhibition (1 µM) is on record?
**A.** 54%

**Q.** Which target mRNA inhibition (1 µM) does the source give for GAAATAACTGTTCTCC (sugars k3 d10 k3, PS) here?
**A.** 32%

**Q.** Which target mRNA inhibition (1 µM) does the source give for GAACAATATGGGATGA (sugars k3 d10 k3, PS) here?
**A.** 26%

**Q.** Which target mRNA inhibition (1 µM) does the source give for “GAACAGTCTTAAACCT (sugars k3 d9 k3 e1, PS)” here?
**A.** 64%

**Q.** How did the target mRNA inhibition (1 µM) turn out when GAACAGTCTTAAACCT (sugars k3 d10 k3, PS) was run?
**A.** 64%

**Q.** With GAACAGTTCAACTGAA (sugars k3 d10 k3, PS) as the sequence, how does the target mRNA inhibition (1 µM) read?
**A.** 10%

**Q.** How did the target mRNA inhibition (1 µM) turn out when GAACATACATTGTTGC (sugars k3 d10 k3, PS) was run?
**A.** 58%

**Q.** How did the target mRNA inhibition (1 µM) turn out when GAACTGTGTTGCTTGT (sugars k3 d10 k3, PS) was run?
**A.** 77%

**Q.** GAAGACTACATTAACA (sugars k3 d10 k3, PS) was tested. Which target mRNA inhibition (1 µM) did it give?
**A.** 36%

**Q.** How did the target mRNA inhibition (1 µM) turn out when GAAGAGGCTAGGGAAA (sugars k3 d10 k3, PS) was run?
**A.** 44%

**Q.** With GAAGATCGGCTGGATA (sugars k3 d10 k3, PS) as the sequence, how does the target mRNA inhibition (1 µM) read?
**A.** 16%

**Q.** With GAATAGGAGAGTCTTT (sugars k3 d10 k3, PS) as the sequence, how does the target mRNA inhibition (1 µM) read?
**A.** 58%

**Q.** Which target mRNA inhibition (1 µM) does the source give for GAATCATGATTGAATT (sugars k3 d10 k3, PS) here?
**A.** 39%

**Q.** Which target mRNA inhibition (1 µM) does the source give for GAATCATTAAGCTTAG (sugars k3 d10 k3, PS) here?
**A.** 63%

**Q.** How did the target mRNA inhibition (1 µM) turn out when GAATGCTACTTGAACA (sugars k3 d10 k3, PS) was run?
**A.** 44%

**Q.** For “GAATGCTACTTGAACA (sugars kkdddddddddkekek, PS)”, which target mRNA inhibition (1 µM) is on record?
**A.** 48%

**Q.** GAATTATTTCTTGCGA (sugars k3 d10 k3, PS) was tested. Which target mRNA inhibition (1 µM) did it give?
**A.** 61%

**Q.** For GACACTAATTTAGTCA (sugars k3 d10 k3, PS), which target mRNA inhibition (1 µM) is on record?
**A.** 11%

**Q.** For “GACAUGAGGTTTTGAT (sugars k3 d1 m1 d8 k3, PS)”, which target mRNA inhibition (1 µM) is on record?
**A.** 34%

**Q.** With GACCATGCTGCTACTC (sugars k3 d10 k3, PS) as the sequence, how does the target mRNA inhibition (1 µM) read?
**A.** 74%

**Q.** How did the target mRNA inhibition (1 µM) turn out when GACTATAAAAAGGGAG (sugars k3 d10 k3, PS) was run?
**A.** 40%

**Q.** With “GACTGCTGCTAGTGCC (sugars k3 d9 k3 e1, PS)” as the sequence, how does the target mRNA inhibition (1 µM) read?
**A.** 49%

**Q.** GACTTCTTACGACTTC (sugars k3 d10 k3, PS) was tested. Which target mRNA inhibition (1 µM) did it give?
**A.** 38%

**Q.** For GAGAAATCTAAGAACC (sugars k3 d10 k3, PS), which target mRNA inhibition (1 µM) is on record?
**A.** 42%

**Q.** With “GAGACATGAGGTTTTG (sugars kkdddddddddkekek, PS)” as the sequence, how does the target mRNA inhibition (1 µM) read?
**A.** 49%

**Q.** With GAGATAAAGCTGCCTG (sugars k3 d10 k3, PS) as the sequence, how does the target mRNA inhibition (1 µM) read?
**A.** 67%

**Q.** With GAGATTACCCCTGGCT (sugars k3 d10 k3, PS) as the sequence, how does the target mRNA inhibition (1 µM) read?
**A.** 72%

**Q.** Which target mRNA inhibition (1 µM) does the source give for GAGCGATAGATCTCTT (sugars k3 d10 k3, PS) here?
**A.** 0%

**Q.** For GAGTAAACGACTCTGT (sugars k3 d10 k3, PS), which target mRNA inhibition (1 µM) is on record?
**A.** 43%

**Q.** With GAGTAATCAGTTTTCC (sugars k3 d10 k3, PS) as the sequence, how does the target mRNA inhibition (1 µM) read?
**A.** 65%

**Q.** For GAGTAGATGATGGTGA (sugars k3 d10 k3, PS), which target mRNA inhibition (1 µM) is on record?
**A.** 28%

**Q.** Which target mRNA inhibition (1 µM) does the source give for GAGTAGTGGAGCCAGA (sugars k3 d10 k3, PS) here?
**A.** 44%

**Q.** With GAGTCATAATTTGCTT (sugars k3 d10 k3, PS) as the sequence, how does the target mRNA inhibition (1 µM) read?
**A.** 57%

**Q.** How did the target mRNA inhibition (1 µM) turn out when “GAGTCGGTCACCTTTC (sugars k3 d1 m1 d8 k3, PS)” was run?
**A.** 55%

**Q.** For “GAGTGCATCTTAAGAT (sugars k3 d1 m1 d8 k3, PS)”, which target mRNA inhibition (1 µM) is on record?
**A.** 7%

**Q.** For GAGTTATCTGGTTTGC (sugars k3 d10 k3, PS), which target mRNA inhibition (0.02 µM) is on record?
**A.** 0%

**Q.** What about the target mRNA inhibition (0.078 µM) of the same sequence?
**A.** 0%

**Q.** And the target mRNA inhibition (0.313 µM)?
**A.** 27%

**Q.** And the target mRNA inhibition (1 µM)?
**A.** 84%

**Q.** What about the target mRNA inhibition (1.25 µM) of the same sequence?
**A.** 68%

**Q.** What about the target mRNA inhibition (5 µM) of the same sequence?
**A.** 91%

**Q.** For GAGTTATTCTCTTGAC (sugars k3 d10 k3, PS), which target mRNA inhibition (1 µM) is on record?
**A.** 57%

**Q.** Which results are given for GAGTTCTACACCACAC (sugars k3 d10 k3, PS)?
**A.** target mRNA inhibition (0.02 µM): 0%; target mRNA inhibition (0.078 µM): 19%; target mRNA inhibition (0.313 µM): 32%; target mRNA inhibition (1 µM): 76%; target mRNA inhibition (1.25 µM): 65%; target mRNA inhibition (5 µM): 87%

**Q.** “GAGTUGCACCGTTTTG (sugars k3 d1 m1 d8 k3, PS)” was tested. Which target mRNA inhibition (1 µM) did it give?
**A.** 63%

**Q.** With GATAATATGTGACTTG (sugars k3 d10 k3, PS) as the sequence, how does the target mRNA inhibition (1 µM) read?
**A.** 68%

**Q.** With GATAATTTGGTGTCAT (sugars k3 d10 k3, PS) as the sequence, how does the target mRNA inhibition (1 µM) read?
**A.** 59%

**Q.** How did the target mRNA inhibition (1 µM) turn out when GATAGTGAACATACAT (sugars k3 d10 k3, PS) was run?
**A.** 54%

**Q.** With “GATATTCTGTGGCATG (sugars kkdddddddddkekek, PS)” as the sequence, how does the target mRNA inhibition (1 µM) read?
**A.** 52%

**Q.** How did the target mRNA inhibition (1 µM) turn out when GATCATTGCAGAAAGA (sugars k3 d10 k3, PS) was run?
**A.** 23%

**Q.** Which target mRNA inhibition (1 µM) does the source give for GATCTCTTAGCTGTGC (sugars k3 d10 k3, PS) here?
**A.** 64%

**Q.** Which target mRNA inhibition (1 µM) does the source give for “GATCTCTTAGCTGTGC (sugars kkdddddddddkekek, PS)” here?
**A.** 45%

**Q.** Which target mRNA inhibition (1 µM) does the source give for GATCTGAGTTACATTA (sugars k3 d10 k3, PS) here?
**A.** 69%

**Q.** GATGAGTAGGCAACTG (sugars k3 d10 k3, PS) was tested. Which target mRNA inhibition (1 µM) did it give?
**A.** 42%

**Q.** “GATGCTCCATAATAAT (sugars k3 d1 m1 d8 k3, PS)” was tested. Which target mRNA inhibition (1 µM) did it give?
**A.** 24%

**Q.** Which target mRNA inhibition (1 µM) does the source give for GATGCTCCATAATAAT (sugars k3 d10 k3, PS) here?
**A.** 42%

**Q.** With GATGGTGATCAGAAGC (sugars k3 d10 k3, PS) as the sequence, how does the target mRNA inhibition (1 µM) read?
**A.** 52%

**Q.** How did the target mRNA inhibition (1 µM) turn out when “GATGTAGTGGGAGTCG (sugars kkdddddddddkekek, PS)” was run?
**A.** 38%

**Q.** With “GATTAAGCAGAATTGT (sugars kkdddddddddkekek, PS)” as the sequence, how does the target mRNA inhibition (1 µM) read?
**A.** 31%

**Q.** For GATTACAGCATCAAGA (sugars k3 d10 k3, PS), which target mRNA inhibition (1 µM) is on record?
**A.** 52%

**Q.** For “GATTAGTCTTGATGTA (sugars k3 d9 k3 e1, PS)”, which target mRNA inhibition (1 µM) is on record?
**A.** 48%

**Q.** For “GATTAGTCTTGATGTA (sugars kkdddddddddkekek, PS)”, which target mRNA inhibition (1 µM) is on record?
**A.** 56%

**Q.** For GATTGTTACATCACCC (sugars k3 d10 k3, PS), which target mRNA inhibition (0.02 µM) is on record?
**A.** 15%

**Q.** What about the target mRNA inhibition (0.078 µM) of the same sequence?
**A.** 32%

**Q.** What about the target mRNA inhibition (0.313 µM) of the same sequence?
**A.** 33%

**Q.** And the target mRNA inhibition (1 µM)?
**A.** 65%

**Q.** What about the target mRNA inhibition (1.25 µM) of the same sequence?
**A.** 74%

**Q.** What about the target mRNA inhibition (5 µM) of the same sequence?
**A.** 91%

**Q.** For GATTTAGAGAGCGATA (sugars k3 d10 k3, PS), which target mRNA inhibition (1 µM) is on record?
**A.** 44%

**Q.** For GCAATGAGATTACCCC (sugars k3 d10 k3, PS), which target mRNA inhibition (0.02 µM) is on record?
**A.** 3%

**Q.** What about the target mRNA inhibition (0.078 µM) of the same sequence?
**A.** 26%

**Q.** And the target mRNA inhibition (0.313 µM)?
**A.** 58%

**Q.** What about the target mRNA inhibition (1 µM) of the same sequence?
**A.** 83%

**Q.** And the target mRNA inhibition (1.25 µM)?
**A.** 83%

**Q.** And the target mRNA inhibition (5 µM)?
**A.** 89%

**Q.** Which target mRNA inhibition (1 µM) does the source give for GCAATTTACTTTCAGC (sugars k3 d10 k3, PS) here?
**A.** 66%

**Q.** How did the target mRNA inhibition (1 µM) turn out when GCACCAACTATGTAAT (sugars k3 d10 k3, PS) was run?
**A.** 53%

**Q.** With “GCAGAAATTCACCTTG (sugars kkdddddddddkekek, PS)” as the sequence, how does the target mRNA inhibition (1 µM) read?
**A.** 53%

**Q.** How did the target mRNA inhibition (1 µM) turn out when GCAGCATTGATTCGAA (sugars k3 d10 k3, PS) was run?
**A.** 63%

**Q.** GCATAAGAGCCAAACT (sugars k3 d10 k3, PS) was tested. Which target mRNA inhibition (1 µM) did it give?
**A.** 67%

**Q.** For GCATCAAGACATTCTA (sugars k3 d10 k3, PS), which target mRNA inhibition (1 µM) is on record?
**A.** 72%

**Q.** How did the target mRNA inhibition (1 µM) turn out when “GCATCTTAAGATACCC (sugars k3 d1 m1 d8 k3, PS)” was run?
**A.** 65%
